Like-named read-outs stand apart in the source and are kept apart here.
Key:
[1] = test system: PC3; assay: tumor cell growth (CTG), PC3
[2] = test system: HCT116; assay: Thymidine (Thy) 96 well, HCT116; conditions: read-out: IC50 (uM), HCT116 (Colon Cancer)
[3] = test system: MCF7; assay: tumor cell growth, MCF7; conditions: read-out: IC50 (uM), MCF7 (Breast C); Table 6
[4] = test system: A172; assay: tumor cell growth, A172; conditions: read-out: IC50 (uM), A172 (CNS); Table 6
[5] = test system: LN229; assay: [3H]-Thymidine incorporation in 96-well plates (Thy), LN229; conditions: read-out: IC50 (uM), LN229 (CNS Cancer)
[6] = test system: HT29; assay: Thymidine (Thy) 96 well, HT29; conditions: read-out: IC50 (uM), HT29 (Colon Cancer)
[7] = test system: HT29; assay: tumor cell growth (CTG), HT29
[8] = test system: Du-145; assay: tumor cell growth, Du-145; conditions: read-out: IC50 (uM), Du-145 (Prostate C); Table 6
[9] = test system: A549; assay: tumor cell growth, A549; conditions: read-out: IC50 (uM), A549 (NSCLC); Table 6
[10] = test system: MDAMB231; assay: tumor cell growth, MDAMB231; conditions: read-out: IC50 (uM), MDAMB231 (Breast C); Table 6
[11] = test system: PANC-1; assay: tumor cell growth, PANC-1; conditions: read-out: IC50 (uM), PANC-1 (Pancreatic C); Table 6
[12] = test system: PC3; assay: [3H]-Thymidine incorporation in 96-well plates (Thy), PC3; conditions: read-out: IC50 (uM), PC3 (Prostrate Cancer)
[13] = test system: GL261; assay: tumor cell growth, GL261; conditions: read-out: IC50 (uM), GL261 (CNS); Table 6
[14] = test system: H460; assay: tumor cell growth (CTG), H460 / NCIH460
[15] = test system: U87; assay: tumor cell growth, U87; conditions: read-out: IC50 (uM), U87 (CNS); Table 6
[16] = test system: HEP3B; assay: tumor cell growth (CTG), HEP3B
[17] = test system: LN-229; assay: tumor cell growth (CTG), LN-229 / LN229
[18] = test system: HEP3B; assay: [3H]-Thymidine incorporation in 96-well plates (Thy), HEP3B; conditions: read-out: IC50 (uM), HEP3B (Liver Cancer)
[19] = test system: LN-18; assay: tumor cell growth, LN-18; conditions: read-out: IC50 (uM), LN-18 (CNS); Table 6
[20] = test system: HCT116; assay: tumor cell growth (CTG), HCT116
[21] = test system: HEPG2; assay: tumor cell growth, HEPG2; conditions: read-out: IC50 (uM), HEPG2 (Liver C); Table 6
[22] = test system: U251; assay: tumor cell growth, U251; conditions: read-out: IC50 (uM), U251 (CNS); Table 6
[23] = test system: U118; assay: tumor cell growth, U118; conditions: read-out: IC50 (uM), U118 (CNS); Table 6
[24] = test system: NCIH460; assay: Thymidine (Thy) 96 well, NCIH460; conditions: read-out: IC50 (uM), NCIH460 (NSCLC)

Q: With COc1ccc(C[C@@H](C)NC[C@H](O)c2cc(O)cc(O)c2)c2ccccc12 [(R,R′)-MNF, (R,R′)-4′-methoxy-1-naphthylfenoterol] as the compound, how does the IC50 ([1]; read-out: IC50 (uM), PC3 (Prostate C), Table 6) read?
A: The IC50 was 28.1 µM.

Q: What about the IC50 ([1]; read-out: IC50 (uM), PC3 (Prostrate Cancer), 96 well CTG 1 day treatment) of the same compound?
A: The IC50 was 34.5 µM.

Q: And the IC50 ([1]; read-out: IC50 (uM), PC3 (Prostrate Cancer), 96 well CTG 2 days treatment)?
A: The IC50 was 20.4 µM.

Q: And the IC50 ([1]; read-out: IC50 (uM), PC3 (Prostrate Cancer), 384well CTG 3 days treatment −1)?
A: Its IC50 is 28.1 µM.

Q: What about the IC50 ([2]; 96 well Thy 2 days treatment) of the same compound?
A: Its IC50 is 11 µM.

Q: And the IC50 ([2]; 96 well Tye 1 day treatment)?
A: Its IC50 is 23.8 µM.

Q: What about the IC50 [3] of the same compound?
A: The IC50 was 37.2 µM.

Q: And the IC50 [4]?
A: Its IC50 is 30.5 µM.

Q: What about the IC50 ([5]; 96 well Thy 2 days treatment) of the same compound?
A: The IC50 was 10.4 µM.

Q: What about the IC50 ([5]; 96 well Tye 1 day treatment) of the same compound?
A: The IC50 was 9.64 µM.

Q: What about the IC50 ([6]; 96 well Thy 2 days treatment) of the same compound?
A: The IC50 was 19.6 µM.

Q: What about the IC50 ([6]; 96 well Tye 1 day treatment) of the same compound?
A: The IC50 was 13 µM.

Q: And the IC50 ([7]; read-out: IC50 (uM), HT29 (Colon C), Table 6)?
A: Its IC50 is 10.7 µM.

Q: And the IC50 ([7]; read-out: IC50 (uM), HT29 (Colon Cancer), 96 well CTG 1 day treatment)?
A: Its IC50 is 30.4 µM.

Q: And the IC50 ([7]; read-out: IC50 (uM), HT29 (Colon Cancer), 96 well CTG 2 days treatment)?
A: Its IC50 is 11.7 µM.

Q: What about the IC50 ([7]; read-out: IC50 (uM), HT29 (Colon Cancer), 384well CTG 3 days treatment −1) of the same compound?
A: Its IC50 is 10.7 µM.

Q: And the IC50 [8]?
A: Its IC50 is 34.8 µM.

Q: And the IC50 [9]?
A: Its IC50 is 23.1 µM.

Q: And the IC50 [10]?
A: Its IC50 is 33.2 µM.

Q: What about the IC50 [11] of the same compound?
A: Its IC50 is 33.4 µM.

Q: What about the IC50 ([12]; 96 well Thy 2 days treatment) of the same compound?
A: Its IC50 is 10.8 µM.

Q: And the IC50 ([12]; 96 well Tye 1 day treatment)?
A: The IC50 was 11 µM.

Q: And the IC50 [13]?
A: The IC50 was 21.3 µM.

Q: What about the IC50 ([14]; read-out: IC50 (uM), H460 (NSCLC), Table 6) of the same compound?
A: Its IC50 is 11.6 µM.

Q: And the IC50 ([14]; read-out: IC50 (uM), NCIH460 (NSCLC), 96 well CTG 1 day treatment)?
A: Its IC50 is 38.9 µM.

Q: And the IC50 ([14]; read-out: IC50 (uM), NCIH460 (NSCLC), 96 well CTG 2 days treatment)?
A: Its IC50 is 15.4 µM.

Q: And the IC50 ([14]; read-out: IC50 (uM), NCIH460 (NSCLC), 384well CTG 3 days treatment −1)?
A: The IC50 was 11.6 µM.

Q: And the IC50 ([14]; read-out: IC50 (uM), NCIH460 (NSCLC), 384well CTG 3 days treatment −2)?
A: Its IC50 is 17.7 µM.

Q: What about the IC50 [15] of the same compound?
A: Its IC50 is 25.7 µM.

Q: And the IC50 ([16]; read-out: IC50 (uM), HEP3B (Liver C), Table 6)?
A: The IC50 was 14.7 µM.

Q: And the IC50 ([16]; read-out: IC50 (uM), HEP3B (Liver Cancer), 96 well CTG 1 day treatment)?
A: The IC50 was 28.3 µM.

Q: What about the IC50 ([16]; read-out: IC50 (uM), HEP3B (Liver Cancer), 96 well CTG 2 days treatment) of the same compound?
A: Its IC50 is 13.5 µM.

Q: And the IC50 ([16]; read-out: IC50 (uM), HEP3B (Liver Cancer), 384well CTG 3 days treatment −1)?
A: Its IC50 is 14.7 µM.

Q: What about the IC50 ([16]; read-out: IC50 (uM), HEP3B (Liver Cancer), 384well CTG 3 days treatment −2) of the same compound?
A: Its IC50 is 12.1 µM.

Q: And the IC50 ([17]; read-out: IC50 (uM), LN229 (CNS Cancer), 96 well CTG 1 day treatment)?
A: The IC50 was 29.3 µM.

Q: What about the IC50 ([17]; read-out: IC50 (uM), LN229 (CNS Cancer), 96 well CTG 2 days treatment) of the same compound?
A: The IC50 was 15.7 µM.

Q: What about the IC50 ([17]; read-out: IC50 (uM), LN229 (CNS Cancer), 384well CTG 3 days treatment −1) of the same compound?
A: The IC50 was 26.8 µM.

Q: What about the IC50 ([17]; read-out: IC50 (uM), LN-229 (CNS), Table 6) of the same compound?
A: Its IC50 is 26.8 µM.

Q: What about the IC50 ([18]; 96 well Thy 2 days treatment) of the same compound?
A: Its IC50 is 10 µM.

Q: And the IC50 ([18]; 96 well Tye 1 day treatment)?
A: The IC50 was 10.7 µM.

Q: And the IC50 [19]?
A: The IC50 was 29.7 µM.

Q: And the IC50 ([20]; read-out: IC50 (uM), HCT116 (Colon C), Table 6)?
A: The IC50 was 12.9 µM.

Q: What about the IC50 ([20]; read-out: IC50 (uM), HCT116 (Colon Cancer), 96 well CTG 1 day treatment) of the same compound?
A: The IC50 was 19 µM.

Q: What about the IC50 ([20]; read-out: IC50 (uM), HCT116 (Colon Cancer), 96 well CTG 2 days treatment) of the same compound?
A: Its IC50 is 10.5 µM.

Q: What about the IC50 ([20]; read-out: IC50 (uM), HCT116 (Colon Cancer), 384well CTG 3 days treatment −1) of the same compound?
A: Its IC50 is 12.9 µM.

Q: What about the IC50 ([20]; read-out: IC50 (uM), HCT116 (Colon Cancer), 384well CTG 3 days treatment −2) of the same compound?
A: The IC50 was 12.2 µM.

Q: And the IC50 [21]?
A: Its IC50 is 28.8 µM.

Q: What about the IC50 [22] of the same compound?
A: Its IC50 is 26.7 µM.

Q: What about the IC50 [23] of the same compound?
A: The IC50 was 37 µM.

Q: What about the IC50 ([24]; 96 well Thy 2 days treatment) of the same compound?
A: Its IC50 is 21 µM.

Q: And the IC50 ([24]; 96 well Tye 1 day treatment)?
A: The IC50 was 25.1 µM.

— US11389415B2, “Methods of regulating cannabinoid receptor activity-related disorders and diseases” (The United States of America as represented by the …, priority 2012, dated 2022)
